Assay results as given in patent US7408065B2, “P2X7 receptor antagonists and their use” (AstraZeneca AB, priority 2003, dated 2008).

First: N[C@H]1CCN(c2ccc3c(C(=O)NCC4CCCCC4)cccc3n2)C1 [Example 54, 2-[(3S)-3-Amino-1-pyrrolidinyl]-N-(cyclohexylmethyl)-5-quinolinecarboxamide]
Second: N[C@H]1CCCN(c2ccc3c(NC(=O)CC4CCCCC4)c(Cl)ccc3n2)C1 [Example 60, N-[2-[(3S)-3-Amino-1-piperidinyl]-6-chloro-5-quinolinyl]-cyclohexaneacetamide]
The melting point of the first is lower: 127 to 128 °C for the first, 173 to 176 °C for the second.

First: O=C(NCC1CCCCC1)c1c(Cl)ccc2nc(N3CC(NCCO)C3)ccc12 [Example 55, 6-Chloro-N-(cyclohexylmethyl)-2-[3-[(2-hydroxyethyl)amino]-1-azetidinyl]-5-quinolinecarboxamide]
Second: O=C(CC1CCCCC1)Nc1c(Cl)ccc2nc(N3CCC[C@H](NCCO)C3)ccc12 [Example 61, N-[6-Chloro-2-[(3S)-3-[(2-hydroxyethyl)amino]-1-piperidinyl]-5-quinolinyl]-cyclohexaneacetamide]
The melting point of the first is lower: 150 to 151 °C for the first, 182 to 183 °C for the second.

First: CC(C)(C)OC(=O)N(CCO)[C@H]1CCN(c2ccc3c(NC(=O)CC4CCCCC4)c(Cl)ccc3n2)C1 [Example 56, [1-[6-Chlor-5-[(cyclohexylacetyl)amino]-2-quinolinyl]-3-pyrrolidinyl](2-hydroxyethyl)-carbamic Acid 1,1-dimethylethyl Ester]
Second: O=C(O)CC1CCN(c2ccc3c(NC(=O)CC4CCCCC4)c(Cl)ccc3n2)CC1 [Example 68, 1-[6-Chloro-5-[(cyclohexylacetyl)amino]-2-quinolinyl]-4-piperidineacetic Acid]
The melting point of the first is lower: 115 to 120 °C for the first, 242 to 244 °C for the second.

First: Cc1ccc2ncccc2c1C(=O)NCC1CCCCC1 [Example 57, N-(Cyclohexylmethyl)-6-methyl-5-quinolinecarboxamide]
Second: O=C(NCC1CCCCC1)c1c(Cl)ccc2nc(N3CCC[C@@H]3C(=O)O)ccc12 [Example 71, 1-[6-Chloro-5-[[(cyclohexylmethyl)amino]carbonyl]-2-quinolinyl]-D-proline]
The melting point of the first is higher: 165 °C for the first, 157 to 160 °C for the second.

First: N[C@H]1CCN(c2ccc3c(NC(=O)CCC4CCCC4)c(Cl)ccc3n2)C1 [Example 62, N-[2-[(3S)-3-Amin-1-pyrrolidinyl]-6-chloro-5-quinlinyl]-cyclopentanepropanamide]
Second: O=C(CCC1CCCC1)Nc1c(Cl)ccc2nc(N3CC[C@H](NCCO)C3)ccc12 [Example 63, N-[6-Chloro-2-[(3S)-3-[(2-hydroxyethyl)amino]-1-pyrrolidinyl]-5-quinolinyl]-cyclopentanepropanamide]
The melting point of the first is higher: 192 to 194 °C for the first, 186 to 188 °C for the second.

First: O=C(CC1CCCCC1)Nc1c(Cl)ccc2nc(N3CCC(n4cn[nH]c4=O)CC3)ccc12 [Example 64, N-[6-Chloro-2-[4-(1,5-dihydro-5-oxo-4H-1,2,4-triazol-4-yl)-1-piperidinyl]-5-quinolinyl]-cyclohexaneacetamide]
Second: O=C(NCCC1CCCCC1)c1c(Cl)ccc2nc(N3CCC(C(=O)O)CC3)ccc12 [Example 76, 1-[6-Chloro-5-[[(2-cyclohexylethyl)amino]carbonyl]-2-quinolinyl]-4-piperidinecarboxylic Acid]
The melting point of the first is higher: 310 to 313 °C for the first, 253 to 256 °C for the second.

First: O=C(O)CCCc1ccc2c(NC(=O)CC3CCCCC3)c(Cl)ccc2n1 [Example 67, 6-Chloro-5-[(cyclohexylacetyl)amino]-2-quinolinebutanoic Acid]
Second: O=C(O)CCCCc1ccc2c(NC(=O)CC3CCCCC3)c(Cl)ccc2n1 [Example 70, 6-Chloro-5-[(cyclohexylacetyl)amino]-2-quinolinepentanoic Acid]
The melting point of the first is higher: 216 to 220 °C for the first, 199 to 201 °C for the second.

With `N[C@H]1CCN(Cc2ccc3c(NC(=O)CC4CCCCC4)c(Cl)ccc3n2)C1` [Example 59, N-[2-[[(3S)-3-Amino-1-pyrrolidinyl]methyl]-6-chloro-5-quinolinyl]-cyclohexaneacetamide] the melting point was 160 °C (dec.).
